Source: ChEMBL document CHEMBL1201862, “PubChem BioAssay data set” (2004)
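Cells were grown in 96-well plates and exposed to each compound for 48 hours at five concentrations; endpoints were interpolated linearly between bracketing concentrations, or set to the highest concentration if not reached. GI50 is the concentration that inhibits growth by half.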 The source made the active and inactive calls. Cut-off read from the data, not from the text of the source: active = GI50 up to about 1.1 µM and inactive = higher.

What was measured:
Assay in all cases: NCI anticancer screen, dose series, 48 h
SK-MEL-28 = system: SK-MEL-28
HT-29 = system: HT-29
NCI-H226 = system: NCI-H226
OVCAR-5 = system: OVCAR-5
UACC-62 = system: UACC-62
M14 = system: M14
OVCAR-8 = system: OVCAR-8
SF-268 = system: SF-268
TK-10 = system: TK-10
ACHN = system: ACHN
A498 = system: A498
SF-295 = system: SF-295
SNB-19 = system: SNB-19
NCI-H460 = system: NCI-H460
K562 = system: K562
NCI-H522 = system: NCI-H522
Malme-3M = system: Malme-3M
SNB-75 = system: SNB-75
SK-MEL-2 = system: SK-MEL-2
A549 = system: A549

Measured: GI50

Cc1ccc(-c2cc(-c3ccco3)c(C#N)c(=O)n2C2OC(CO)C(O)C(O)C2O)cc1 (stereo not drawn)
inactive: SK-MEL-28 37 µM | HT-29 > 100 µM | NCI-H226 58.6 µM | OVCAR-5 > 100 µM | UACC-62 42.3 µM | M14 67.5 µM | OVCAR-8 32.2 µM | SF-268 53 µM | TK-10 45.3 µM | ACHN 42.9 µM | A498 21.6 µM | SF-295 33.6 µM | SNB-19 68.2 µM | NCI-H460 37.1 µM | K562 > 100 µM | NCI-H522 44.5 µM | Malme-3M 41 µM

COc1ccc2c(c1)CCN=C2Cc1cc(OC)c(OC)cc1CCCl
inactive: SK-MEL-28 66.2 µM | HT-29 26.9 µM | SNB-75 > 100 µM | NCI-H226 64.6 µM | OVCAR-5 17.3 µM | UACC-62 53.8 µM | M14 21.2 µM | OVCAR-8 > 100 µM | SF-268 48.6 µM | TK-10 35.7 µM | ACHN 57 µM | SF-295 30.9 µM | SNB-19 97.1 µM | SK-MEL-2 > 100 µM | A549 96.4 µM | NCI-H460 69.8 µM | K562 81.1 µM | NCI-H522 21.7 µM | Malme-3M 27.4 µM

COc1cc(/C=C/C(=O)C(C)(C)C)cc(OC)c1OC
inactive: SK-MEL-28 63 µM | HT-29 38 µM | SNB-75 25.9 µM | NCI-H226 33.6 µM | OVCAR-5 > 100 µM | UACC-62 36.9 µM | M14 33.3 µM | OVCAR-8 33.4 µM | SF-268 33.9 µM | TK-10 > 100 µM | ACHN 39.7 µM | SF-295 38.9 µM | SNB-19 > 100 µM | SK-MEL-2 32.7 µM | A549 32.2 µM | NCI-H460 25.5 µM | K562 37.6 µM | NCI-H522 29 µM | Malme-3M 71.8 µM

CC(=O)O[C@]12CCCCCC1C1(O)C(O)CCCC[C@H]12 (stereo partly drawn)
inactive: SK-MEL-28 > 100 µM | HT-29 > 100 µM | SNB-75 14.7 µM | NCI-H226 > 100 µM | UACC-62 > 100 µM | M14 > 100 µM | OVCAR-8 > 100 µM | SF-268 > 100 µM | TK-10 > 100 µM | ACHN > 100 µM | SF-295 > 100 µM | SNB-19 > 100 µM | SK-MEL-2 > 100 µM | A549 > 100 µM | NCI-H460 > 100 µM | K562 > 100 µM | NCI-H522 > 100 µM | Malme-3M > 100 µM
